# Assay: Stability of drugs in acidic conditions, in solution or in PCL structures (HPLC)
# Assay type: physicochemical
# Details: IAW, pH=1, 37° C.
# Experimental: Stability of drugs in the gastric environment was evaluated using HPLC and LC-MS/MS analysis. Hydrophilic drugs were dissolved in simulated gastric fluid (SGF, 0.2% (w/v) NaCl, 0.83% (v/v) HCL, pH=1) in centrifuge tubes. Hydrophobic drugs were dissolved in IAW (isopropanol 70%, acetonitrile 20%, water 10%) with pH adjusted to 1 using HCL. As a control, drugs were dissolved in the same solvents with pH adjusted to 6.0 (using IM NaOH). After vortexing for 1 min and sonication for 10 min, tubes were placed in a shaking incubator (150 rpm, 37° C.). Samples were collected at defined time points for up to two weeks and analyzed by HPLC and LC-MS/MS to quantify the stability of drugs.
# Stability of drugs loaded into PCL based delivery matrices were also studied. Loading of drugs is described below in Examples 16 and 17. Drug loaded structures were kept at acidic conditions (pH=1, 37° C.) and at defined intervals, drug was extracted from the PCL matrix and analyzed by HPLC and/or LC-MS/MS. In order to extract drugs, structures were sonicated in SGF (hydrophilic drugs) or isopropanol (hydrophobic drugs) for 10 min. Fresh drug in SGF or Isopropanol was prepared immediately before analysis as controls.
# Ivermectin (IVM) loaded structures, shown in FIG. 16B, were placed in SGF+RH solution (pH=1, 37° C.) for 72 h. Drug was extracted by sonicating the structure in isopropanol for 10 min.
substance,measurement,value
Ivermectin,Stability in acidic conditions (in solution),unstable

# Reference: US10596110B2, “Residence structures and related methods” (Massachusetts Institute of Technology, priority 2014, dated 2020)
